Experimental data as given in patent US6258845A (priority 1999, dated 2001).
Entries after “also recorded” stand apart in the source; their conditions may differ. Read-outs that look alike come from different tables or passages of the source.

Experiments:
[1] = system: Caco-2 parental cells, Ki-ras clone #60 and Ki-ras clone #66; assay: Viable cell number (trypan blue dye exclusion), growth of Caco-2 parental and Ki-ras transfected cells; type: cell-based, human; conditions: 5 mM DFMO continuously, short-term growth
Procedure: Effect of sulindac sulfide and sulfone on the growth of Ki-ras transfected cells. […] Viable cell number was determined by trypan blue dye exclusion.
Caco-2 cells were maintained in Modified Eagle Media (GIBCO, Grand Island, N.Y.) supplemented with 10% fetal bovine serum and a 1% penicillin (10,000 units/ml)-streptomycin (10,000 mg/ml) solution (GIBCO, Grand Island, N.Y.). Transfected Caco-2 cells resistant to neomycin were maintained in 400 μg/ml G418. Cells were maintained at 37° in the presence of 5% CO2 in air.
All cells were passed into new medium every two to three days, just prior to confluence. Drug additions were performed at the time of cell seeding and in MEM for each cell line unless otherwise noted. […] The two metabolites of sulindac, sulindac sulfone and sulfide, were obtained from Cell Pathways, Inc. (Horsham Pa.).
Caco-2 cells were removed from the monolayer by treatment with trypsin (1500 units/ml, Calbiochem, San Diego, Calif.)-EDTA (.7mM) and counted using a hemocytometer. A sample of the cell suspension was combined in a 1:1 volume ratio with trypan blue dye (GIBCO, Grand Island, N.Y.), and at least two independently prepared suspensions were counted on a hemocytometer, two counts each. For all cell types, viability was determined by the percentage of cells able to exclude the trypan blue dye.

Caco-2 parental cells [2] = assay: Induction of apoptosis (light microscopy) in Caco-2 parental cells; type: cell-based, human; conditions: 5 mM DFMO, with or without sulindac sulfone (so in the source); parental Caco-2
Procedure: (§1) FIG. 3. […] Apoptosis was determined by light microscopy.
(§2) FIG. 8. […] Cells were grown over a period of 6 days. Cells were harvested at various days (0, 2, 4 and 6 days), spun onto slides and stained. Apoptosis was determined by light microscopy. Percentage of apoptotic cells was calculated as the number of apoptotic cells out of the total cells counted times 100. At least 500 cells were counted for each sample.
(§3) Cells were grown over a period of 6 days. Cells were harvested at various days (0, 2, 4 and 6 days), spun onto slides and stained. Apoptosis was determined by light microscopy. Percentage of apoptotic cells was calculated as the number of apoptotic cells out of the total cells counted times 100.

Ki-ras clone #60 = assay: Induction of apoptosis (light microscopy) in Ki-ras clone 60; type: cell-based, human; conditions: day 6, 5 mM DFMO, with or without sulindac sulfone (so in the source)
Procedure: as §1, §2, §3

Ki-ras clone #60 cells = assay: Clonogenic assay (colony-forming efficiency), Ki-ras clone 60; type: cell-based, human; conditions: Homo sapiens, Caco-2, 24 h; read-out: decrease in cell survival compared to untreated transfectants
[3] = system: colorectal tissue polyamine contents
Procedure: All biopsies were performed between 9:00 a.m. and noon to avoid possible effects of diurnal variation in laboratory endpoints.

polyamine levels = type: in vivo, human
Source text: Based on this information a dose of 0.2 Gm/M^2 /day will be used for the current trial.

[4] = system: tissue polyamine contents (Barrett's lesion, normal squamous esophagus, gastric tissue, small bowel); assay: DFMO in Barrett's esophagus patients, tissue polyamine contents; type: in vivo, human; conditions: 1.5 gm/m^2 per day, 12 weeks
Source text: ODC activities and polyamine contents varied in each site analyzed. The rank orders were Barrett's>small bowel~normal esophagus>gastric tissue for ODC activities, and small bowel≥Barrett's~normal esophagus>gastric tissue for putrescine contents.

[5] = system: ODC and polyamine contents; assay: DFMO effect on colorectal and buccal mucosa ODC and polyamine contents; type: in vivo, human
Source text: When the inventors started these studies, their hope was that the effects of polyamine syntheses inhibitors in easily accessible tissues, such as buccal mucosa in the oral cavity, would be representative of inhibitor effects in less accessible tissue of the gastrointestinal tract. To test this hypothesis, the inventors measured ODC activity and polyamine contents in buccal mucosa isolated from normal human volunteers. […] From these studies, the inventors concluded that the buccal mucosal was not a useful surrogate tissue in which to measure the effects of polyamine synthesis inhibitor on other GI tissues.

Caco-2 parental cells [6] = conditions: long-term survival, Caco-2 cells
[7] = human, in vivo
Caco-2 parental cells [8] = assay: cells; conditions: Homo sapiens, Caco-2, 24 h, read-out: cell survival
Ki-ras clones 60 and 66 = assay: cells; conditions: Homo sapiens
[9] = system: tumors harboring Ki-ras mutations in AOM-treated rats; conditions: cited from earlier work
[10] = system: carcinogenesis in rodent/animal models; conditions: in vivo; cited from earlier work
hearing [11] = conditions: cited from earlier work
tumor putrescine levels = conditions: DFMO infusion, cited from earlier work
platelet counts = conditions: continuous infusion for 12 days; cited from earlier work
MCA sarcoma = conditions: in vivo; cited from earlier work
[12] = system: ornithine decarboxylase (ODC); conditions: cited from earlier work
[13] = system: intracellular putrescine and spermidine; conditions: cited from earlier work
human cancer = conditions: cited from earlier work
hearing [14] = assay: DFMO effects on hearing / ototoxicity in patients; conditions: 0.25 g/m^2 /d
[15] = system: AOM-treated rat model of colon carcinogenesis; conditions: in vivo; cited from earlier work
[16] = cited from earlier work
[17] = system: colorectal adenomas/polyps; conditions: cited from earlier work
[18] = sulindac 400 mg per day; cited from earlier work
COX (cyclooxygenase) = conditions: cited from earlier work
[19] = cited from earlier work; remark: listed apart in the source
[20] = system: colorectal adenomas/polyps; assay: Sulindac effect on colorectal adenomas/polyps in patients; conditions: randomized phase IIb
[21] = system: AOM-treated rat model of colon carcinogenesis; assay: Colon carcinogenesis in the AOM-treated rat / rodent model; conditions: sulfoxide and sulfone forms
[22] = listed as α-Difluoromethylornithine (DFMO)

SMILES: NCCCC(N)(C(=O)O)C(F)F (racemic) [DFMO, 2(Difluoromethyl)-DL-ornithine]
- trypan blue dye exclusion [1]: exclusion of trypan blue dye in either the Ki-ras cells or parentals was unaffected
- increase in apoptosis (Caco-2 parental cells [2]): only a modest increase in apoptosis
- percentage of apoptotic cells (Ki-ras clone #60): 15%
- cytotoxicity at 5000 µM (Ki-ras clone #60 cells): 60%
- lowest dose safe and effective in reducing colorectal mucosal polyamine contents ([3]; daily orally, 28 days): 0.25 gm/m^2
- lowest dose with evident effects on polyamine metabolism ([3]; phase IIa, one month): 0.2 Gm/M^2 /day
- lowest dose decreasing putrescine content ([3]; single daily oral doses, 4 wk, colorectal biopsies): 0.25 gm/m^2
- lowest dose that may produce a persistent effect on polyamine levels (polyamine levels; 12 months): 0.10 Gm/M^2 /day
- audiotoxicity (polyamine levels; in vivo): no audiotoxicity was evident
- patients coming off study (polyamine levels; in vivo): came off study more frequently
- side-effects after one year (polyamine levels; in vivo): equivalent to placebo
- spermidine contents ([4]; Barrett's lesions and normal squamous esophageal tissue): suppressed by systemic DFMO treatment and recovered to untreated control values when DFMO therapy was discontinued
- spermidine and spermine levels ([4]; gastric tissue and small bowel): did not affect the levels of either of these two amines in gastric tissue and small bowel
- buccal mucosal ODC and polyamine contents ([5]; buccal mucosa): unaffected
- polyamine contents in colorectal tissue biopsies ([5]; colorectal tissue): reduced polyamine contents in colorectal tissue biopsies
- effect of DFMO on toxicity of the sulindac metabolites (Caco-2 parental cells [6]): did not increase the toxicity of the sulindac metabolites in long-term survival studies
- wound healing problems [7]: problems with wound healing have not been experienced
- viability at 5000 µM (Caco-2 parental cells [8]): ~100%
- IC50 (Ki-ras clones 60 and 66; 24 h, read-out: concentration at 50% cell survival): 500 µM
- minimal effective concentration (Ki-ras clones 60 and 66; 24 h, read-out: lowest concentration (selectively) toxic to cells with an activated Ki-ras): 50 µM
- viability at 5000 µM (Ki-ras clones 60 and 66; Caco-2, 24 h, read-out: cell survival, of controls): 20 to 40%
- inhibition at 5000 µM (Ki-ras clones 60 and 66; Caco-2, 24 h, read-out: reduction of colony-forming efficiency of the Ki-ras transfectants): 40%
- amount of biochemically active p21 ras in existing tumors [9]: reduced the amount of biochemically active p21 ras in existing tumors
- tumors harboring Ki-ras mutations ([9]; reduced from 90%): 36%
- chemoprevention / inhibition of tumor development in animal models [10]: potent inhibitor of carcinogenesis; also recorded: inhibits the development of many cancers including carcinogen-induced colon polyps and cancer; also recorded: inhibits colon carcinogenesis in carcinogen-treated rodents
- effects on hearing (hearing [11]; 0.4gr/M^2 /day for up to one year): not observed
- audiometric changes (hearing [11]; about 6 months at 0.50 g/m^2 /d (total dose 90 gm)): no audiometric changes
- patients with hearing losses (hearing [11]; cumulative doses above 250 g/m^2): up to 75 % of patients
- patients with demonstrable hearing deficit (hearing [11]; cumulative doses below 150 g/m^2): less than 10 % of the patients
- effects on hearing / hearing loss, reversibility (hearing [11]; other clinical trials): hearing loss, which was reversible after the drug treatment was discontinued; also recorded: totally reversible upon drug discontinuation; also recorded: effects on hearing at high doses of 4 gr/M^2 /day that resolve when it is discontinued
- decrease in tumor putrescine levels (tumor putrescine levels; rat-tumor model): 90%
- peripheral platelet counts (tumor putrescine levels): without suppressing peripheral platelet counts
- platelet counts (platelet counts): significantly reduces platelet counts compared with controls
- growth of MCA sarcoma (MCA sarcoma): reduces the growth rate of an MCA sarcoma but does not produce tumor regression
- inhibition of ODC [12]: powerful inhibitor of ODC, both in vitro and in vivo
- inhibition of ODC [12, 22]: enzyme-activated, irreversible inhibitor of ornithine decarboxylase (ODC)
- uptake of exogenous putrescine ([13]; cells treated in vivo): significantly increase their uptake of exogenous putrescine
- intracellular polyamine concentrations [13]: decrease in putrescine and spermidine concentrations
- intracellular polyamine concentrations [13, 22]: depletion in the intracellular concentrations of putrescine and its derivative, spermidine
- activity in chemotherapy trials (human cancer; human cancer): not to be an active cytotoxic agent
- activity in malignant brain tumors (human cancer; malignant brain tumors): moderate activity
- expected onset of hearing loss (hearing [14]): > 800 days

SMILES: CC1=C(CC(=O)O)c2cc(F)ccc2/C1=C\c1ccc([S+](C)[O-])cc1 (stereo not drawn) [sulindac, (Z)-5-Fluoro-2-methyl-1-((4 (methylsulfinyl)phenyl)methylene) 1H-indene-3-acetic acid]
- Ki-ras mutation / tumors harboring an activated Ki-ras [9]: reduces the number of tumors harboring an activated Ki-ras
- apoptosis in AOM-treated rodent model [15]: cause apoptosis
- inhibition of colon carcinogenesis in AOM-treated rat model [15]: effectively inhibit colon carcinogenesis
- time of peak plasma levels ([16]; fasting patients): about 2 hours
- half-life ([16]; human, in vivo, po): 7 h
- mean half-life ([16]; human, in vivo, po): 7.8 h
- absorption of drug ([16]; oral administration): about 90%
- regression of adenomas in FAP patients ([17]; FAP patients): regression of adenomas
- clinical regression of polyps ([17]; several studies): can cause clinical regression of polyps
- effect on sporadic adenomas ([17]; sporadic adenomas): no such effect
- analgesic and antiinflamatory effects [18]: comparable to those achieved by aspirin (4 g per day), ibuprofin (1200 mg per day), indomethacin (125 mg per day), and phenylbutazone (400 to 600 mg per day)
- COX / prostaglandin synthesis inhibition (COX (cyclooxygenase)): inhibit cycloxygenase and prostaglandin synthesis
- borderline elevations in one or more liver function test ([19]; human, in vivo): 15 % of clinical trial patients
- gastrointestinal toxicity / ulceration ([19]; human, in vivo): serious gastrointestinal toxicity such as bleeding, ulceration, and perforation
- meaningful elevations in liver function test (3 times upper limit of normal) ([19]; human, in vivo): less than 1%
- mild gastrointestinal effects ([19]; human, in vivo): ~20 % of patients
- skin rash and pruritus ([19]; human, in vivo): 5 % of patients
- gastrointestinal toxicity / ulceration ([19]; human, in vivo, listed as Sulindac): G.I. ulceration that in general is dose-related; also recorded: can produce gastric irritation and bleeding
- granulocytosis, aplastic anemia, hemolytic anemia ([19]; rare adverse effects): less than 1%
- gastrointestinal pain ([19]; therapeutic doses): 10%
- 150 mg per day vs. twice per day [20]: comparable results
- safety in phase IIb study [20]: safe
- polyp regression and development of new polyps ([20]; 150 mg per day or twice per day): regression of extant polyps shown
- inhibition of carcinogenesis in the AOM-treated rat [21]: inhibit carcinogenesis in the AOM-treated rat, with similar potencies
